Measured values taken from publication PMC6409644, “The Inhibitory Effect of Celangulin V on the ATP Hydrolytic Activity of the Complex of V-ATPase Subunits A and B in the Midgut of Mythimna separata” (Toxins, 2019).

How the values were obtained:
[1] = target: T1, V-ATPase subunit A (TSCA mutant) in complex with subunit B (Mythimna separata, UniProt A0A0U1XFD8+A0AAD8DTT7, A0AAD8DTT7:C254A/A0AAD8DTT7:T257S); assay: inhibition of ATP hydrolysis (inorganic phosphate release) by the purified complex; IC50 […], Ki calculated; CV was a suspension; format: biochemical
T1 construct: gene PYW07_012492; with V-ATPase subunit B
T1 sequence (A0AAD8DTT7 1-617, stated change not applied): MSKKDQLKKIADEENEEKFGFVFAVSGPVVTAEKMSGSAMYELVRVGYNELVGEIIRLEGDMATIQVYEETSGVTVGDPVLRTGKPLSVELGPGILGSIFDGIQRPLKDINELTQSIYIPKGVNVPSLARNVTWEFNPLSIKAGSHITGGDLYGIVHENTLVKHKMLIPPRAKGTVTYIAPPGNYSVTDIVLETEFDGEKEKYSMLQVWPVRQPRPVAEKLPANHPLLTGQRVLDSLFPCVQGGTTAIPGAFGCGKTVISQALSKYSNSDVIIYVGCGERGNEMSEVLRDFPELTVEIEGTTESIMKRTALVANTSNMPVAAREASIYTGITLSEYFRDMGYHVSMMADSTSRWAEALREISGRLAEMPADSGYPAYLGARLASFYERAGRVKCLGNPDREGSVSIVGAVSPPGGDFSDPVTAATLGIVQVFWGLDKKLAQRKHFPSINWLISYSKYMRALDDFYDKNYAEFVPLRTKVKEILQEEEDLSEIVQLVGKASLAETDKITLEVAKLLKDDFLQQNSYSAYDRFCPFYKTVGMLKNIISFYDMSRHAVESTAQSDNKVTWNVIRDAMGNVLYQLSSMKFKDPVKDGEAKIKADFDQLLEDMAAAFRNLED
T1 sequence (A0A0U1XFD8 1-497): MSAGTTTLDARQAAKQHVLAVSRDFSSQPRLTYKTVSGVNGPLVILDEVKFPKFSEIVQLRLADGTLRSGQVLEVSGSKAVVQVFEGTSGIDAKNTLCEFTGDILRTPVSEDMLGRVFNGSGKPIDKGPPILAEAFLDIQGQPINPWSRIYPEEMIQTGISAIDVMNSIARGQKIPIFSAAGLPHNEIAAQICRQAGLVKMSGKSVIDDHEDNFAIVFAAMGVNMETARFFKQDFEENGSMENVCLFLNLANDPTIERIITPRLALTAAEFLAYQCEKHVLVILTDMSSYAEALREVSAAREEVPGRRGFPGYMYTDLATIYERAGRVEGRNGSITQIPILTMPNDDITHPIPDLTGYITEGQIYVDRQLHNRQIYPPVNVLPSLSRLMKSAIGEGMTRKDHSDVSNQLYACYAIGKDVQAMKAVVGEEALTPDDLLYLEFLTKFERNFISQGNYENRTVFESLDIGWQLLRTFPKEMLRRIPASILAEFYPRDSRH

[2] = tested on: T2, Nc1ncnc2c1ncn2[C@@H]1O[C@H](COP(=O)(O)OP(=O)(O)OP(=O)(O)O)[C@@H](O)[C@H]1O; assay: ATP hydrolysis kinetics (inorganic phosphate release), Lineweaver–Burk Km; format: biochemical, Mythimna separata; settings: Mg2+ ([…] MgCl2) ATP binding site of the AB complex (by docking: D416, D436, K437, K438 of subunit A and T439 of subunit B)
T2 construct: with V-ATPase subunit B

| Molecule | Ki [1] [µM] | Km [2] [µM] |
| --- | --- | --- |
| CC(=O)O[C@H]1C[C@](C)(O)C23OC(C)(C)[C@H]([C@H](OC(=O)C(C)C)[C@@H](OC(=O)c4ccccc4)[C@]2(COC(=O)C(C)C)[C@H]1OC(C)=O)[C@H]3O [CV, Celangulin V] | 10 |  |
| V-ATPase subunit A (TSCA mutant) in complex with subunit B (Mythimna separata; A0AAD8DTT7:C254A/A0AAD8DTT7:T257S) |  | 268 |
